Test results: PubChem BioAssay AID328 (DTP/NCI, 2004)
“And” between values parts separate entries of the source, which are not always exact repeats. Identical values can stand only once. Toxic doses and inconclusive results are not listed. The calls were made as follows: active = survival T/C of 150% or more; inactive = T/C below 125% in these data.

Tested on: BDF1 mice, P388 leukemia ip, median survival T/C
Assay: NCI In Vivo Anticancer Drug Screen. Data for tumor model P388 Leukemia (intraperitoneal) in B6D2F1 (BDF1) mice
Settings: endpoint: median survival time, higher = longer survival
In short: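 In tumour-bearing mice, survival after compound treatment is set against the vehicle group and given as a quotient.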

[1] = dose: 6.25 mg/kg/injection, schedule: Q01DX009 (ip), vehicle: saline with Tween-80
[2] = dose: 12.5 mg/kg/injection, schedule: Q01DX009 (ip), vehicle: saline with Tween-80
[3] = dose: 25.0 mg/kg/injection, schedule: Q01DX009 (ip), vehicle: saline with Tween-80
[4] = dose: 50.0 mg/kg/injection, schedule: Q01DX009 (ip), vehicle: saline with Tween-80
[5] = dose: 25.0 mg/kg/injection, schedule: Q04DX003 (ip), vehicle: saline with Tween-80
[6] = dose: 50.0 mg/kg/injection, schedule: Q04DX003 (ip), vehicle: saline with Tween-80
[7] = dose: 66.0 mg/kg/injection, schedule: Q04DX003 (ip), vehicle: saline with Tween-80
[8] = dose: 100.0 mg/kg/injection, schedule: Q04DX003 (ip), vehicle: saline with Tween-80
[9] = dose: 150.0 mg/kg/injection, schedule: Q04DX003 (ip), vehicle: saline with Tween-80
[10] = dose: 100.0 mg/kg/injection, schedule: Q01DX009 (ip), vehicle: saline with Tween-80
[11] = dose: 400.0 mg/kg/injection, schedule: Q01DX009 (ip), vehicle: saline with Tween-80
[12] = dose: 200.0 mg/kg/injection, schedule: Q01DX009 (ip), vehicle: saline with Tween-80
[13] = dose: 200.0 mg/kg/injection, schedule: Q04DX003 (ip), vehicle: saline with Tween-80
[14] = dose: 400.0 mg/kg/injection, schedule: Q04DX003 (ip), vehicle: saline with Tween-80

Measured: T/C

CC1=CC(C)(C)NC(=S)N1c1ccccc1
inactive: dose: 75.0 mg/kg/injection, schedule: Q04DX003 (ip), vehicle: Klucel (hydroxypropylcellulose) (HPC) 100 % of control | dose: 100.0 mg/kg/injection, schedule: Q01DX001 (ip), vehicle: Klucel (hydroxypropylcellulose) (HPC) 95 % of control | dose: 150.0 mg/kg/injection, schedule: Q04DX003 (ip), vehicle: Klucel (hydroxypropylcellulose) (HPC) 100 % of control | dose: 200.0 mg/kg/injection, schedule: Q01DX001 (ip), vehicle: Klucel (hydroxypropylcellulose) (HPC) 104 % of control | dose: 300.0 mg/kg/injection, schedule: Q04DX003 (ip), vehicle: Klucel (hydroxypropylcellulose) (HPC) 100 % of control | dose: 400.0 mg/kg/injection, schedule: Q01DX001 (ip), vehicle: Klucel (hydroxypropylcellulose) (HPC) 109 % of control

Cc1cc(C)nc(NN)n1
inactive: [1] 98 % of control | [2] 96 % of control | [3] 101 % of control | [4] 102 % of control

COc1ccc(NC(=S)NN)cc1
inactive: [5] 100 % of control | [6] 100 % of control | [7] 100 % of control | [8] 100 % of control | [9] 90 % of control

C[N+](C)(CCCCOCCCC[N+](C)(C)Cc1ccc([N+](=O)[O-])cc1)Cc1ccc([N+](=O)[O-])cc1
inactive: dose: 0.19 mg/kg/injection, schedule: Q01DX009 (ip), vehicle: saline with Tween-80 100 % of control | dose: 0.37 mg/kg/injection, schedule: Q01DX009 (ip), vehicle: saline with Tween-80 104 % of control | dose: 0.75 mg/kg/injection, schedule: Q01DX009 (ip), vehicle: saline with Tween-80 108 % of control | dose: 1.5 mg/kg/injection, schedule: Q01DX009 (ip), vehicle: saline with Tween-80 96 % of control | dose: 1.5 mg/kg/injection, schedule: Q04DX003 (ip), vehicle: saline with Tween-80 109 % of control | dose: 3.0 mg/kg/injection, schedule: Q04DX003 (ip), vehicle: saline with Tween-80 104 % of control

CC(=O)OCC(=O)[C@@]1(O)CC[C@H]2[C@@H]3CCC4=CC(=O)CC[C@]4(C)[C@@]3(Cl)[C@@H](O)C[C@@]21C
inactive: dose: 18.7 mg/kg/injection, schedule: Q04DX003 (ip), vehicle: saline with Tween-80 109 % of control | dose: 37.5 mg/kg/injection, schedule: Q04DX003 (ip), vehicle: saline with Tween-80 109 % of control | [7] 113 % of control | dose: 75.0 mg/kg/injection, schedule: Q04DX003 (ip), vehicle: saline with Tween-80 118 % of control | [9] 118 % of control

CC1CC(N)=NC1C(=O)NCCC#N (stereo unspecified)
inactive: [10] 98 % of control | [11] 98 % of control

CC(O)Cc1c[nH]c(=O)[nH]c1=O (stereo unspecified)
inactive: dose: 100.0 mg/kg/injection, schedule: Q01DX009 (ip), vehicle: water 92 % of control | dose: 100.0 mg/kg/injection, schedule: Q04DX003 (ip), vehicle: water 90 % of control | dose: 200.0 mg/kg/injection, schedule: Q01DX009 (ip), vehicle: water 96 % of control | dose: 200.0 mg/kg/injection, schedule: Q04DX003 (ip), vehicle: water 105 % of control | dose: 400.0 mg/kg/injection, schedule: Q04DX003 (ip), vehicle: water 96 % of control

CCOC1=NCCCCC1
inactive: dose: 50.0 mg/kg/injection, schedule: Q01DX009 (ip), vehicle: saline 98 % of control | dose: 100.0 mg/kg/injection, schedule: Q01DX009 (ip), vehicle: saline 95 % of control | dose: 200.0 mg/kg/injection, schedule: Q01DX009 (ip), vehicle: saline 98 % of control | dose: 400.0 mg/kg/injection, schedule: Q01DX009 (ip), vehicle: saline 98 % of control

Nc1nc(N)c2c(n1)CCCC2
inactive: [1] 100 % of control | [2] 90 % of control | [3] 90 % of control

CCC(=O)/C=C/c1ccccc1
inactive: [4] 93 % of control | [10] 109 % of control | [12] 118 % of control

O=C(CCCc1ccc(N(CCCl)CCCl)cc1)Nc1ncccn1
active: dose: 6.0 mg/kg/injection, schedule: Q01DX009 (ip), vehicle: Klucel (hydroxypropylcellulose) (HPC) 152 % of control | dose: 8.0 mg/kg/injection, schedule: Q01DX009 (ip), vehicle: Klucel (hydroxypropylcellulose) (HPC) 188 % of control
inactive: dose: 2.0 mg/kg/injection, schedule: Q01DX009 (ip), vehicle: Klucel (hydroxypropylcellulose) (HPC) 88 % of control | dose: 3.0 mg/kg/injection, schedule: Q01DX009 (ip), vehicle: Klucel (hydroxypropylcellulose) (HPC) 115 % of control | dose: 18.0 mg/kg/injection, schedule: Q01DX009 (ip), vehicle: Klucel (hydroxypropylcellulose) (HPC) 112 % of control | dose: 25.0 mg/kg/injection, schedule: Q01DX009 (ip), vehicle: Klucel (hydroxypropylcellulose) (HPC) 92 % of control

CC(=O)c1ccccc1-n1c(C)ccc1C
inactive: dose: 25.0 mg/kg/injection, schedule: Q01DX009 (ip), vehicle: saline + alcohol 114 % of control | dose: 50.0 mg/kg/injection, schedule: Q01DX009 (ip), vehicle: saline + alcohol 122 % of control | dose: 50.0 mg/kg/injection, schedule: Q04DX003 (ip), vehicle: saline 96 % of control | dose: 100.0 mg/kg/injection, schedule: Q01DX009 (ip), vehicle: saline + alcohol 116 % of control | dose: 100.0 mg/kg/injection, schedule: Q04DX003 (ip), vehicle: saline 119 % of control | dose: 200.0 mg/kg/injection, schedule: Q01DX009 (ip), vehicle: saline + alcohol 99 % of control | dose: 200.0 mg/kg/injection, schedule: Q04DX003 (ip), vehicle: saline 92 % of control | dose: 400.0 mg/kg/injection, schedule: Q04DX003 (ip), vehicle: saline 97 % of control

COCn1cc(C(N)=O)c(=O)c2c(N)nc(SC)nc21
inactive: dose: 100.0 mg/kg/injection, schedule: Q04DX002 (ip), vehicle: saline with Tween-80 90 % of control | dose: 400.0 mg/kg/injection, schedule: Q04DX002 (ip), vehicle: saline with Tween-80 96 % of control

CC(=O)OCC(OC(C)=O)C(OC(C)=O)C(OC(C)=O)C1COC(C)(C)O1 (stereo unspecified)
inactive: dose: 75.0 mg/kg/injection, schedule: Q01DX009 (ip), vehicle: saline with Tween-80 94 % of control | dose: 150.0 mg/kg/injection, schedule: Q01DX009 (ip), vehicle: saline with Tween-80 86 % of control | dose: 300.0 mg/kg/injection, schedule: Q01DX009 (ip), vehicle: saline with Tween-80 91 % of control

CC(C(=O)c1ccccc1)C(Cl)c1ccccc1 (stereo unspecified)
inactive: [4] 95 % of control | [10] 94 % of control | [8] 89 % of control | [12] 86 % of control | [13] 89 % of control | [11] 86 % of control | [14] 98 % of control

C/C=C1/C[C@@H](C)[C@@](C)(O)C(=O)OCC2=CCN3CC[C@@H](OC1=O)[C@@H]23
inactive: dose: 7.5 mg/kg/injection, schedule: Q01DX010 (ip), vehicle: steriod suspending solution 109 % of control | dose: 15.0 mg/kg/injection, schedule: Q01DX010 (ip), vehicle: steriod suspending solution 100 % of control | dose: 30.0 mg/kg/injection, schedule: Q01DX010 (ip), vehicle: steriod suspending solution 100 % of control | dose: 60.0 mg/kg/injection, schedule: Q01DX010 (ip), vehicle: steriod suspending solution 95 % of control and 109 % of control

O=C(NC(=O)c1c(F)cccc1F)Nc1nc2c(Cl)cccc2s1
inactive: [4] 93 % of control | [10] 93 % of control | [12] 94 % of control

COC(=O)C(C#N)=N/C(=C/C=C1/N(C)c2ccccc2C1(C)C)c1ccccc1
inactive: [4] 102 % of control | [10] 96 % of control | [12] 97 % of control

CC1C=CCC2C(=O)OC(=O)C12 (stereo unspecified)
inactive: [5] 100 % of control | [6] 100 % of control | [8] 100 % of control

ClC(CN1CCCCC1)C(Cl)c1ccccc1 (stereo unspecified)
inactive: dose: 50.0 mg/kg/injection, schedule: Q04DX003 (ip), vehicle: saline sonified 108 % of control | dose: 100.0 mg/kg/injection, schedule: Q04DX003 (ip), vehicle: saline sonified 112 % of control | dose: 200.0 mg/kg/injection, schedule: Q04DX003 (ip), vehicle: saline sonified 104 % of control

O=C(Cn1ccc(=O)[nH]c1=O)c1cccs1
inactive: [10] 90 % of control | [8] 100 % of control | [12] 86 % of control | [13] 95 % of control | [11] 100 % of control | [14] 95 % of control
